From patent US8759334B2, “Compounds useful for the treatment of metabolic and inflammatory diseases” (Galapagos NV, priority 2011, dated 2014) come the findings set out here.

Test [1] concerns the target T1, GPR43 (Homo sapiens, UniProt O15552).
T1 construct: expressed in transfected cells
T1 sequence (O15552 1-330): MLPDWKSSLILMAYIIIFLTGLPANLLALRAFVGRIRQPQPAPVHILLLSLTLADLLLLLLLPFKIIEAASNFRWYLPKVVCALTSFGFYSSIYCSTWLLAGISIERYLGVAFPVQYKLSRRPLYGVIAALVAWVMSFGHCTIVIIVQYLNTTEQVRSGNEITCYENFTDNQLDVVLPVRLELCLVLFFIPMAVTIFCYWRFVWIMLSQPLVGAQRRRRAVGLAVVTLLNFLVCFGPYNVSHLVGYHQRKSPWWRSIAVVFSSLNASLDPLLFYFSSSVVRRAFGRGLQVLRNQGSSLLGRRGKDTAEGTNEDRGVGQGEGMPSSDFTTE
In words: Calcium mobilization assay with probenecid. It counts as cell-based. The note with it: GPR43 stably expressing cells; triggered with sodium acetate at EC80; 2.5 mM probenecid; read-out: GPR43 assay with probenicid IC50. The gist of the method: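 Cells stably expressing GPR43 plated overnight at 37 °C, then loaded 2 h with Calcium 4 dye plus 2.5 mM probenecid. […]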

Test [2] deals with T1, GPR43. Kind of test: Calcium mobilization assay without probenecid. It counts as cell-based. The note with it: GPR43 stably expressing cells, triggered with sodium acetate at EC80, read-out: GPR43 assay without probenicid IC50. The gist of the method:
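In GPR43-expressing cells loaded with a Calcium 4 dye, antagonism was tested by a 15 min compound preincubation at 37 °C, then a sodium acetate challenge at EC80, with Ca-flux read on injection. For agonism, Ca-flux was recorded directly on compound injection.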

Test [3] concerns the target T1, GPR43. Kind of test: [35S]GTPγS binding assay. In kind it is biochemical. The note with it: membranes from stable cell line over expressing GPR43; sodium acetate at EC80. As for the experimental part: The assay was performed in a 96 well plate where the following reagents were added. […] In a last step, 30 μL of a mixture consisting of membranes-GTPγS-SpA beads was added (mixture consists of 10 μg/well membranes derived from stable cell line over expressing GPR43 (membranes were pre-incubated with 3 μM GDP for 15 minutes at 4° C.), 0.1 nM [35S]GTPγS (Perkin Elmer, NEG030) and 0.5 mg/well PVT-WGA SpA beads (perkin Elmer, RPNQ0001)). […] Reactions were incubated for 240 minutes at room temperature followed by centrifugation at 2000 rpm for 15 minutes. Plates were read on a Topcount immediately after centrifugation (readout time, 1 minute/well).

In a further test the test system is human neutrophils. In words: Neutrophil migration assay. It counts as cell-based. To be noted: neutrophils from human buffy coat, migration towards sodium acetate, read-out: human neutrophil migration inhibition EC50. As for the experimental part:
G Protein-Coupled Receptor 43 (GPR43) was described as an essential player in the process of neutrophil recruitment during intestinal inflammation.
The effect of agonists or antagonists for GPR43 can therefore be assayed in a neutrophil migration test. In the neutrophil migration assay, neutrophils, isolated from buffy coats from human volunteers, are treated with a compound for 30 minutes. Subsequently, the neutrophils are transferred to the upper wells of a Corning HTS transwell 96 permeable support system, of which the lower wells are filled with a sodium acetate solution.
The ACD buffer consists of 140 mM citric acid, 200 mM sodium citrate and 220 mM dextrose. The 6% dextran/0.9% NaCl solution consists of 15 g dextran T2000 and 2.25 g NaCl dissolved in 250 mL H2O.
A human buffy coat is diluted with an equal volume of ice cold DPBS. 20 mL of the diluted buffy coat is gently mixed with 4 mL of ACD buffer. Then, 12 mL of the 6% dextran/0.9% NaCl solution is added to the mixture and the samples are inverted gently up to 20 times. The total volume is transferred to a new recipient and incubated at room temperature for 1 h for complete separation of the two phases to occur. The yellowish supernatant is then transferred to a clean centrifugation tube and centrifuged for 12 minutes at 1300 rpm and 4° C. After centrifugation, the supernatant is discarded and the remaining cell pellet is rapidly resuspended in 12 mL of ice-cold H2O for red blood cell lysis to occur. After 20 seconds, 4 mL of ice-cold 0.6 M KCl is added. Samples are mixed carefully and centrifuged for 6 minutes at 1300 rpm, 4° C. The supernatant is discarded and the red blood cell lysis procedure is repeated one more time. […] After centrifugation for 12 min at 1300 rpm, 4° C., the supernatant is removed and the cell pellet, containing the neutrophils, is resuspended in 25 mL chemotaxis buffer.
A cell suspension of 8.9×10^6 cells per milliliter is prepared. 20 μL of compound solution in chemotaxis buffer is added to 180 μl cell suspension. The mixture is incubated at 37° C. for 30 minutes with Intermediate resuspension of the cells after 15 minutes. […] The receiver well of the transwell system is then filled with 200 μL chemotaxis buffer containing compound and chemotactic agent (sodium acetate). After incubation at 37° C. in 5% CO2 for 1 h, the upper plate of the transwell system is removed and the cell suspension in the receiver plate is transferred to a 96-well V-bottom plate. 50 μL of DPBS is added to the receiver plate to prevent remaining cells from drying out. The V-bottom plate is centrifuged for 6 minutes at 1500 rpm. The supernatant is removed and the cells are resuspended in 50 μL DPBS. The cells are then transferred back to the receiver plate of the transwell system. […] The plate is incubated for 10 minutes in the dark, while shaking. 170 μL of cell lysate is then transferred to a white 96-well plate and luminescence is measured. The detected luminescent signal is considered as linearly related to the number of migrated cells.

Some results are limits rather than exact numbers.

Regarding `CC1(C(=O)N(CCO)Cc2ccc(Cl)cc2)CCN1C(=O)Cc1csc2ccccc12` (stereo not shown) [Compound 67, 1-(2-Benzo[b]thiophen-3-yl-acetyl)-2-methyl-azetidine-2-carboxylic acid (4-chloro-benzyl)-(2-hydroxy-ethyl)-amide], the values for the IC50 at GPR43 [1], at GPR43 [2] and at GPR43 [3] were > 1000 nM, 0.01 to 100 nM and 101 to 500 nM, respectively.

In the case of `CC1(C(=O)N(CCCC(=O)O)Cc2ccc(Cl)cc2)CCN1C(=O)c1csc2ccccc12` (stereo not shown) [Compound 115, 4-[[1-(Benzo[b]thiophene-3-carbonyl)-2-methyl-azetidine-2-carbonyl]-(4-chloro-benzyl)-amino]-butyric acid], the figures for the IC50 at GPR43 [1] and at GPR43 [3] were 0.01 to 100 nM and 101 to 500 nM, respectively. For the same compound, in the test on human neutrophils, the EC50 lay within 0.01 to 100 nM.

With `CC1(C(=O)N(CCCC(=O)O)Cc2ccc3cc[nH]c3c2)CCN1C(=O)Cc1csc2ccccc12` (stereo not shown) [Compound 128, 4-[[1-(2-Benzo[b]thiophen-3-yl-acetyl)-2-methyl-azetidine-2-carbonyl]-(1H-indol-6-ylmethyl)-amino]-butyric acid], the 50% inhibitory concentration (IC50) on GPR43 [1] lay within 0.01 to 100 nM; at GPR43 [3], 101 to 500 nM. The EC50 in the test on human neutrophils lay within 0.01 to 100 nM.

As for `CC1(C(=O)N(CCCC(=O)O)Cc2ccc3cc[nH]c3c2)CCN1C(=O)c1csc2ccccc12` (stereo not shown) [Compound 134, 4-[[1-(Benzo[b]thiophene-3-carbonyl)-2-methyl-azetidine-2-carbonyl]-(1H-indol-6-ylmethyl)-amino]-butyric acid], the concentration for half-maximal inhibition (IC50) at GPR43 [1] is 0.01 to 100 nM; on GPR43 [3] it was > 501 nM. Moreover, in the test on human neutrophils, the EC50 was 0.01 to 100 nM.

For the compound `CC1(C(=O)N(CCCC(=O)O)Cc2ccc(C(F)(F)F)cc2)CCN1C(=O)Cc1csc2ccccc12` (stereo not shown) [Compound 144, 4-[[1-(2-Benzo[b]thiophen-3-yl-acetyl)-2-methyl-azetidine-2-carbonyl]-(4-trifluoromethyl-benzyl)-amino]-butyric acid], the half-inhibitory concentration (IC50) on GPR43 [1] is 0.01 to 100 nM; on GPR43 [3], 51 to 100 nM. Also, the EC50 in the test with human neutrophils lay within 0.01 to 100 nM.

For `CC1(C(=O)N(CCC(=O)O)Cc2ccc(Cl)cc2)CCN1C(=O)c1csc2ccccc12` (stereo not shown) [Compound 155, 3-[[1-(Benzo[b]thiophene-3-carbonyl)-2-methyl-azetidine-2-carbonyl]-(4-chloro-benzyl)-amino]-propionic acid], the IC50 was 0.01 to 100 nM on GPR43 [1] and > 501 nM at GPR43 [3]. For the same compound, the EC50 in the test on human neutrophils fell in the range of 0.01 to 100 nM.

As for `CC1(C(=O)N(CCC(=O)O)Cc2cccc(Cl)c2)CCN1C(=O)c1csc2ccccc12` (stereo not shown) [Compound 169, 3-[[1-(Benzo[b]thiophene-3-carbonyl)-2-methyl-azetidine-2-carbonyl]-(3-chloro-benzyl)-amino]-propionic acid], the IC50 at GPR43 [1] was 0.01 to 100 nM; at GPR43 [3] it was > 501 nM. Also, the EC50 with human neutrophils lay within 101 to 500 nM.

Take `CC1(C(=O)N(CCCS(N)(=O)=O)Cc2ccc(Cl)cc2)CCN1C(=O)c1csc2ccccc12` (stereo not shown) [Compound 182, 1-(Benzo[b]thiophene-3-carbonyl)-2-methyl-azetidine-2-carboxylic acid (4-chloro-benzyl)-(3-sulfamoyl-propyl)-amide]: the half-inhibitory concentration (IC50) was in the range of 0.01 to 100 nM at GPR43 [1] and 101 to 500 nM on GPR43 [3].

For `CC1(C(=O)N(CCCS(N)(=O)=O)Cc2cccc(Cl)c2)CCN1C(=O)c1csc2ccccc12` (stereo not shown) [Compound 187, 1-(Benzo[b]thiophene-3-carbonyl)-2-methyl-azetidine-2-carboxylic acid (3-chloro-benzyl)-(3-sulfamoyl-propyl)-amide], the IC50 on GPR43 [1] fell in the range of 0.01 to 100 nM; on GPR43 [3], 101 to 500 nM.

For `CC1(C(=O)N(CCCC(=O)O)c2ccc(Cl)cc2)CCN1C(=O)c1csc2ccccc12` (stereo not shown) [Compound 194, 4-[[1-(Benzo[b]thiophene-3-carbonyl)-2-methyl-azetidine-2-carbonyl]-(4-chloro-phenyl)-amino]-butyric acid], the IC50 at GPR43 [1] is 0.01 to 100 nM; at GPR43 [3] it was > 501 nM.

Turning to `CCC1(C(=O)N(CCCC(=O)O)Cc2cccc(Cl)c2)CCN1C(=O)c1csc2ccccc12` (stereo not shown) [Compound 195, 4-[[1-(Benzo[b]thiophene-3-carbonyl)-2-ethyl-azetidine-2-carbonyl]-(3-chloro-benzyl)-amino]-butyric acid], the results for the IC50 on GPR43 [1] and at GPR43 [3] were 0.01 to 100 nM and 101 to 500 nM, respectively.

On to `C[C@@H](c1ccc(Cl)cc1)N(CCCC(=O)O)C(=O)[C@@]1(C)CCN1C(=O)c1csc2ccccc12` [Compound 198, 4-{[(R)-1-(Benzo[b]thiophene-3-carbonyl)-2-methyl-azetidine-2-carbonyl]-[(S)-1-(4-chloro-phenyl)-ethyl]-amino}-butyric acid], for which the concentration for half-maximal inhibition (IC50) on GPR43 [1] was 0.01 to 100 nM; on GPR43 [3], 101 to 500 nM.
